Laboratory results from ChEMBL document CHEMBL3098081, “Synthesis and anticancer potential of benzothiazole linked phenylpyridopyrimidinones and their diones as mitochondrial apoptotic inducers” (Bioorg Med Chem Lett, 2014).

How the values were obtained:
[1] = Cytotoxicity against human ME180 cells after 48 hrs by MTT assay; type: functional, cell-based; conditions: ME-180, 48 h
B16 = assay: Cytotoxicity against mouse B16 cells after 48 hrs by MTT assay; type: functional, cell-based; conditions: B16, 48 h
MCF7 = assay: cells; conditions: Homo sapiens, MCF7, 48 h
Description: Cytotoxicity against human MCF7 cells after 48 hrs by MTT assay

DU-145 = assay: Cytotoxicity against human DU145 cells after 48 hrs by MTT assay; type: functional, cell-based; conditions: DU-145, 48 h

| Compound | IC50 [1] [µM] | IC50 (B16) [µM] | IC50 (MCF7) [µM] | IC50 (DU-145) [µM] |
| --- | --- | --- | --- | --- |
| O=c1[nH]cc(F)c(=O)[nH]1 [FLUOROURACIL] | 4.9 | 4.2 | 3.5 |  |
| COc1cc(-n2c(=O)n(-c3nc4ccc([N+](=O)[O-])cc4s3)c(=O)c3cccnc32)cc(OC)c1OC | > 20 | 19.9 | > 20 | > 20 |
